Drawing on patent US20220396565A1 (Hoffmann-La Roche Inc., priority 2020, published 2022), this text covers IC90 for 23 molecules.

A word on the IC90: it is the concentration at which the effect reaches the 90% level.

The subject of the assay is Acinetobacter baumannii ATCC17961. The assay is described as follows: Antimicrobial susceptibility testing: 90% growth inhibitory concentration (IC90) determination, Iso-Sensitest broth. It counts as cell-based. An outline of the steps:
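Twofold serial dilutions (e.g. 10 to 0.02 μM final) were tested in Iso-Sensitest broth against ~5×10^(5) CFU/ml at 35±2 °C. OD600 was read every 20 min over 16 h. IC90 was derived from growth inhibition during the logarithmic phase.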

Setting [1] is: Acinetobacter baumannii, ATCC17961, read-out: ATCC 17961 IC90.
Where [2] appears, read: Acinetobacter baumannii, ATCC17961, 90% growth inhibitory concentration, Acinetobacter baumannii ATCC17961, Iso-Sensitest broth, read-out: ATCC 17961 IC90.

Each structure is given as a SMILES string. Structures can show the parent of a compound that is named as a salt. Where two headings read alike, the source gives them in different places.

For `Cn1c(-c2ccc(OCF)cc2F)cnc1C(=O)Nc1ccc(C(=O)N2CCN(C(=O)C3CCNCC3)CC2)c(Cl)c1` [Example 25, N-(3-chloro-4-(4-(piperidine-4-carbonyl)piperazine-l-carbonyl)phenyl)-5-(2-fluoro-4-(fluoromethoxy)phenyl)-1-methyl-1H-imidazole-2-carboxamide formate], under setting [1], the concentration for an effect of 90% (IC90) came out at 60 nM.
Regarding `CCc1cc(NC(=O)c2ncc(-c3ccc(OC)c(F)c3F)n2C)ccc1C(=O)N1CCC(C(=O)N2CCN(CCCN(C)C)CC2)CC1` [Example 97, 5-(2,3-difluoro-4-methoxy-phenyl)-N-[4-[4-[4-[3-(dimethylamino)propyl]piperazine-1-carbonyl]piperidine-1-carbonyl]-3-ethyl-phenyl]-1-methyl-imidazole-2-carboxamide], the IC90 under setting [2] turned out to be 260 nM.
Consider `COc1ccc(-c2cnc(C(=O)Nc3ccc(C(=O)N4CCN(C(=O)CCOCCNC(=O)CN(C)C)CC4)c(Cl)c3)n2C)c(F)c1F` [Example 299, N-[3-Chloro-4-[4-[3-[2-[[2-(dimethylamino)acetyl]amino]ethoxy]propanoyl]piperazine-1-carbonyl]phenyl]-5-(2,3-difluoro-4-methoxy-phenyl)-1-methyl-imidazole-2-carboxamide], for which the IC90 under setting [1] is 150 nM.
Turning to `COc1ccc(-c2cnc(C(=O)Nc3ccc(C(=O)N4CCC(C(=O)NCC5CCNCC5)CC4)c(Cl)c3)n2C)c(F)c1F` [Example 35, 1-[2-chloro-4-[[5-(2,3-difluoro-4-methoxy-phenyl)-1-methyl-imidazole-2-carbonyl]amino]benzoyl]-N-(4-piperidylmethyl)piperidine-4-carboxamide formate], the IC90 under setting [2] is 60 nM.
The same measure, in the same setting: the value for `COc1ccc(-c2cnc(C(=O)Nc3ccc(C(=O)N4CCC(C(=O)N[C@H]5CCNC5)CC4)c(Cl)c3)n2C)c(F)c1F` [Example 58, 1-[2-chloro-4-[[5-(2,3-difluoro-4-methoxy-phenyl)-1-methyl-imidazole-2-carbonyl]amino]benzoyl]-N-[(3S)-pyrrolidin-3-yl]piperidine-4-carboxamide formate] was 50 nM; that for `Cn1c(-c2ccc(OCF)c(Cl)c2F)cnc1C(=O)Nc1ccc(C(=O)N2CCN(C(=O)[C@@H]3C[C@@H](O)CN3)CC2)c(Cl)c1` [Example 247, 5-[3-chloro-2-fluoro-4-(fluoromethoxy)phenyl]-N-[3-chloro-4-[4-[(2S,4R)-4-hydroxypyrrolidine-2-carbonyl]piperazine-1-carbonyl]phenyl]-1-methyl-imidazole-2-carboxamide] was 30 nM.
On the same count and under the same terms, the value for `COc1ccc(-c2cnc(C(=O)Nc3ccc(C(=O)N4CCN(C(=O)C5CCNCC5)CC4)c(Cl)c3)n2C)c(F)c1F` [Example 265, N-[3-chloro-4-[4-(piperidine-4-carbonyl)piperazine-1-carbonyl]phenyl]-5-(2,3-difluoro-4-methoxy-phenyl)-1-methyl-imidazole-2-carboxamide hydrochloride] was 70 nM.
Same read-out and setting: with `COc1ccc(-c2cnc(C(=O)Nc3ccc(C(=O)N4CCN(C(=O)[C@H]5CCNC5)CC4)c(Cl)c3)n2C)c(F)c1F` [Example 139, N-[3-chloro-4-[4-[(3S)-pyrrolidine-3-carbonyl]piperazine-1-carbonyl]phenyl]-5-(2,3-difluoro-4-methoxy-phenyl)-1-methyl-imidazole-2-carboxamide formate] the figure was 40 nM.
Consider `Cn1c(-c2ccc(OC(F)F)c(F)c2F)cnc1C(=O)Nc1ccc(C(=O)N2CCC(C(=O)N[C@H]3[C@@H]4CNC[C@@H]43)CC2)c(Cl)c1` [Example 61, N-[(1S,5R)-3-azabicyclo[3.1.0]hexan-6-yl]-1-[2-chloro-4-[[5-[4-(difluoromethoxy)-2,3-difluoro-phenyl]-1-methyl-imidazole-2-carbonyl]amino]benzoyl] piperidine-4-carboxamide formate], for which, under setting [2], the IC90 stood at 60 nM.
On to `Cn1c(-c2ccc(OCC#N)c(F)c2F)cnc1C(=O)Nc1ccc(C(=O)N2CCN(C(=O)[C@H]3CCCNC3)CC2)c(Cl)c1` [Example 208, (S)-N-(3-chloro-4-(4-(piperidine-3-carbonyl)piperazine-1-carbonyl)phenyl)-5-(4-(cyanomethoxy)-2,3-difluorophenyl)-1-methyl 1H-imidazole-2-carboxamide 2,2,2-trifluoroacetate], for which the IC90 under setting [1] is 50 nM.
On to `COc1ccc(-c2cnc(C(=O)Nc3ccc(C(=O)N4CCC(NC(=O)[C@@H]5C[C@@H](O)CN5)CC4)c(Cl)c3)n2C)c(F)c1F` [Example 102, N-[3-chloro-4-[4-[[(2S,4R)-4-hydroxypyrrolidine-2-carbonyl]amino]piperidine-1-carbonyl]phenyl]-5-(2,3-difluoro-4-methoxy-phenyl)-1-methyl-imidazole-2-carboxamide], for which the IC90 under setting [2] turned out to be 90 nM.
The same measure, in the same setting: the value for `Cn1c(-c2ccc(OC(F)F)c(F)c2F)cnc1C(=O)Nc1ccc(C(=O)N2CCC(C(=O)N[C@@H]3CCNC3)CC2)c(Cl)c1` [Example 91, (R)-1-(2-chloro-4-(5-(4-(difluoromethoxy)-2,3-difluorophenyl)-1-methyl-1H-imidazole-2-carboxamido)benzoyl)-N-(pyrrolidin-3-yl)piperidine-4-carboxamide formate] was 40 nM; that for `COc1ccc(-c2cnc(C(=O)Nc3ccc(C(=O)N4CCN(S(C)(=O)=O)CC4)c(Cl)c3)n2C)c(F)c1F` [Example 240, N-[3-chloro-4-(4-methylsulfonylpiperazine-1-carbonyl)phenyl]-5-(2,3-difluoro-4-methoxy-phenyl)-1-methyl-imidazole-2-carboxamide] was 320 nM.
The same measure, in the same setting: the value for `COc1ccc(-c2cnc(C(=O)Nc3ccc(C(=O)N4CCC(C(=O)NC[C@H]5CCNC5)CC4)c(Cl)c3)n2C)c(F)c1F` [Example 56, 1-[2-chloro-4-[[5-(2,3-difluoro-4-methoxy-phenyl)-1-methyl-imidazole-2-carbonyl]amino]benzoyl]-N-[[(3S)-pyrrolidin-3-yl]methyl]piperidine-4-carboxamide formate] was 70 nM; that for `Cn1c(-c2ccc(OC(F)F)c(F)c2Cl)cnc1C(=O)Nc1ccc(C(=O)N2CCN(C(=O)C[C@@H]3CCNC3)CC2)c(Cl)c1` [Example 147, 5-[2-chloro-4-(difluoromethoxy)-3-fluoro-phenyl]-N-[3-chloro-4-[4-[2-[(3S)-pyrrolidin-3-yl]acetyl]piperazine-1-carbonyl]phenyl]-1-methyl-imidazole-2-carboxamide formate] was 40 nM.
For the molecule `Cn1c(-c2ccc(OCF)c(F)c2F)cnc1C(=O)Nc1ccc(C(=O)N2CCN(C(=O)C3CNCC(O)C3)CC2)c(Cl)c1` (centres unmarked) [Example 171, formate], under setting [1], the IC90 was 50 nM.
For the molecule `Cn1c(-c2ccc(OC(F)F)c(F)c2F)cnc1C(=O)Nc1ccc(C(=O)N2CCC(C(=O)N3CC[C@H](N)C3)CC2)c(Cl)c1` [Example 46, N-[4-[4-[(3S)-3-aminopyrrolidine-1-carbonyl]piperidine-1-carbonyl]-3-chloro-phenyl]-5-[4-(difluoromethoxy)-2,3-difluoro-phenyl]-1-methyl-imidazole-2-carboxamide trifluoroacetate], the IC90 under setting [2] was determined as 70 nM.
On the same count and under the same terms, the value for `COc1ccc(-c2cnc(C(=O)Nc3ccc(C(=O)N4CC(C(=O)N5C[C@H]6CNC[C@H]6C5)C4)c(Cl)c3)n2C)c(F)c1F` [Example 70, N-[4-[3-[(3aR,6aS)-2,3,3a,4,6,6a-hexahydro-1H-pyrrolo[3,4-c]pyrrole-5-carbonyl]azetidine-1-carbonyl]-3-chloro-phenyl]-5-(2,3-difluoro-4-methoxy-phenyl)-1-methyl-imidazole-2-carboxamide formate] was 140 nM; that for `COc1ccc(-c2cnc(C(=O)Nc3ccc(C(=O)N4CCN(C(=O)C5CC(C(N)=O)C5)CC4)c(Cl)c3)n2C)c(F)c1F` (centres unmarked) [Example 280, N-(4-(4-(3-carbamoylcyclobutane-1-carbonyl)piperazine-1-carbonyl)-3-chlorophenyl)-5-(2,3-difluoro-4-methoxyphenyl)-1-methyl-1H-imidazole-2-carboxamide] was 100 nM; that for `Cn1c(-c2ccc(OC(F)F)c(F)c2F)cnc1C(=O)Nc1ccc(C(=O)N2CCN(C(=O)C3CCN(C(=O)C4(O)CCNCC4)CC3)CC2)c(Cl)c1` [Example 179, N-[3-chloro-4-[4-[1-(4-hydroxypiperidine-4-carbonyl)piperidine-4-carbonyl]piperazine-1-carbonyl]phenyl]-5-[4-(difluoromethoxy)-2,3-difluoro-phenyl]-1-methyl-imidazole-2-carboxamide formate] was 50 nM.
Take `COc1ccc(-c2cnc(C(=O)Nc3ccc(C(=O)N4CCC(NS(C)(=O)=O)CC4)c(Cl)c3)n2C)c(F)c1F` [Example 238, N-[3-chloro-4-[4-(methanesulfonamido)piperidine-1-carbonyl]phenyl]-5-(2,3-difluoro-4-methoxy-phenyl)-1-methyl-imidazole-2-carboxamide]: the IC90 under setting [2] came out at 130 nM.
Same read-out and setting: with `Cn1c(-c2ccc(OCF)cc2F)cnc1C(=O)Nc1ccc(C(=O)N2CCN(C(=O)N3CC[C@@H](N)C3)CC2)c(Cl)c1` [Example 26, (R)-N-(4-(4-(3-aminopyrrolidine-1-carbonyl)piperazine-1-carbonyl)-3-chlorophenyl)-5-(2-fluoro-4-(fluoromethoxy)phenyl)-1-methyl-1H-imidazole-2-carboxamide formate] the figure was 30 nM.
Turning to `COc1ccc(-c2cnc(C(=O)Nc3ccc(C(=O)N4CCN(C(=O)C5CCN(S(=O)(=O)CCN)CC5)CC4)c(Cl)c3)n2C)c(F)c1F` [Example 242, N-[4-[4-[1-(2-aminoethylsulfonyl)pipe-ridine-4-carbonyl]piperazine-1-carbonyl]-3-chloro-phenyl]-5-(2,3-difluoro-4-methoxy-phenyl)-1-methyl-imidazole-2-carboxamide], where the note is “90% growth inhibitory concentration, Acinetobacter baumannii ATCC17961, Iso-Sensitest broth, read-out: ATCC 17961 IC90”, the IC90 was 90 nM.
